These results are taken from EP1444982A1, “The use of purine derivatives as selective kinase inhibitors” (MERCKLE GMBH, priority 2003, dated 2004).

Holding throughout (format): biochemical
One test addresses c-RAF (h) (Homo sapiens, UniProt P04049). Description: Kinase inhibition assay (33P-ATP, P30 filter, scintillation counting): c-RAF. As to conditions: 40 min; 30µM Testsubstanz (100 µM ATP); read-out: Hemmung von Kinasen in % c-RAF (h). On the procedure: (§1) Alle Kinasen werden auf zehnfache Arbeitskonzentration vor Anwendung in dem Essay verdünnt. Die Zusammensetzung des Verdünnungspuffers ist für jede Kinase in der nachfolgenden Tabelle angegeben.
(§2) Alle Substrate werden gelöst und auf eine Stammlösung in entsalztem Wasser verdünnt.
(§3) c-RAF (ha)(5-10 mU) in einem Endreaktionsvolumen von 25 µl wird mit 25 mM Tris pH 7.5,.0.02 mM EGTA, 0.66 mg/ml Myelin-Basisprotein, 10 mM MgAcetat und [γ-^33P-ATP] inkubiert (spezifische Aktivität etwa 50 cpm/pmol, Konzentration wie erforderlich). Die Reaktion wird durch Zugabe von Mg^2+[γ-^33P-ATP] initiiert. Nach 40-minütiger Inkubation bei Raumtemperatur wird die Reaktion durch Zugabe von 5 µl einer 3 %igen Phosphorsäurelösung gestoppt. 10 µl der Reaktion werden dann auf ein P30-Filter gegeben und dreimal jeweils 5 Minuten in 50 mM Phosphorsäure und einmal in Methanol gewaschen. Anschließend wird getrocknet und eine Szintillationszählung durchgeführt.

For the next test, the target named is PKB (h) (Homo sapiens, UniProt P31749). In words: Kinase inhibition assay (33P-ATP, P30 filter, scintillation counting): PKB. Particulars: 40 min; 30µM Testsubstanz (100 µM ATP); read-out: Hemmung von Kinasen in % PKB (h). The protocol:
as §1, §2
as §3, with “PKBα (h)(5-10mU) wird in” for “c-RAF (ha)(5-10 mU) in”, “µl” for “µl wird”, “mit 8” for “mit 25”, “mM MOPS” for “mM Tris”, “pH 7.0, 0.2” for “pH 7.5,.0.02”, “mM EDTRA, 30 µM GRPRTSSFAEGKK,” for “mM EGTA, 0.66 mg/ml Myelin-Basisprotein,”

Another test addresses SAPK2a (h) (Homo sapiens, UniProt Q16539). Description: Kinase inhibition assay (33P-ATP, P30 filter, scintillation counting): SAPK2a. Particulars: 30µM Testsubstanz (100 µM ATP); read-out: Hemmung von Kinasen in % SAPK2a (h). The protocol:
as §1, §2
as §3, with “SAPK2a (h) wird” for “c-RAF (ha)(5-10 mU)”, “µl” for “µl wird”, “7,5, 0.02” for “7.5,.0.02”, “0.33” for “0.66”

Another test has as its target MEK1 (h) (Homo sapiens, UniProt Q02750). Description: Kinase inhibition assay: MEK1 (coupled to MAPK2 assay). Particulars: 30µM Testsubstanz (100 µM ATP); read-out: Hemmung von Kinasen in % MEK1 (h). The protocol: as §1, §2
MEK1 (h)(1-5 mU) in einem Endreaktionsvolumen von 25 µl wird mit 50 mM Tris pH 7.5, 0.2 mM EGTA, 0.1 % b-Mercaptoethanol, 0,01 % Brij-35, 1 µM inaktives MAPK2 (m), 10 mM MgAcetat und kaltem ATP inkubiert (Konzentration wie erforderlich). Die Reaktion wird durch Zugabe von MgATB initiiert. Nach 40-minütiger Inkubation bei Raumtemperatur werden […] dieses Inkubationsgemisches dazu verwendet, den oben beschriebenen MAPK2-Assay zu initiieren.

For the next test, the system named is ROCKII (h). In words: Kinase inhibition assay (33P-ATP, P30 filter, scintillation counting): ROCK-II. Particulars: 30µM Testsubstanz (100 µM ATP); 40 min.
The target in another test is GSK3β (h) (Homo sapiens, UniProt P49841). Description: Kinase inhibition assay (33P-ATP, P30 filter, scintillation counting): GSK3β. As to conditions: 30µM Testsubstanz (100 µM ATP); read-out: Hemmung von Kinasen in % GSK3β (h). The protocol: as §1, §2
as §3, with “GSK3β (h)(5-10mU) in” for “c-RAF (ha)(5-10 mU) in”, “mit 8” for “mit 25”, “mM MOPS” for “mM Tris”, “pH 7.0, 0.2” for “pH 7.5,.0.02”, “mM EDTA, 20 µM […](p) EDEEE (phospho GS2 Peptid),” for “mM EGTA, 0.66 mg/ml Myelin-Basisprotein,”, “etwa 500” for “etwa 50”

The target in another test is Lck (h) (Homo sapiens, UniProt P06239). In words: Kinase inhibition assay (33P-ATP, P30 filter, scintillation counting): Lck. As to conditions: 30µM Testsubstanz (100 µM ATP); read-out: Hemmung von Kinasen in % Lck (h). The protocol:
as §1, §2
as §3, with “Lck (h)(5-10 mU)” for “c-RAF (ha)(5-10 mU)”, “mit 50” for “mit 25”, “pH 7.5, 0.1” for “pH 7.5,.0.02”, “EGTA, 0.1 mM NaVanadate, 250 µM KVEKIGEGTYGVVYK (Cdc2 Peptid),” for “EGTA, 0.66 mg/ml Myelin-Basisprotein,”, “etwa 500” for “etwa 50”

The next test concerns PKA (h). Description: Kinase inhibition assay (33P-ATP, P30 filter, scintillation counting): PKA. Particulars: 30µM Testsubstanz (100 µM ATP); 40 min.
For the next test, the target named is MAPK1 (h) (Homo sapiens, UniProt P27361). In words: Kinase inhibition assay: MAPK1. Particulars: 30µM Testsubstanz (100 µM ATP); read-out: Hemmung von Kinasen in % MAPK1 (h).
From the text: as §1, §2

For a further test, the target named is JNK3 (r) (Rattus norvegicus, UniProt P49187). In words: Kinase inhibition assay: JNK3. Particulars: 30µM Testsubstanz (100 µM ATP); read-out: Hemmung von Kinasen in % JNK3 (r).
From the text: as §1, §2

For another test, the target named is MAPK2 (h) (Homo sapiens, UniProt P28482). Description: Kinase inhibition assay: MAPK2. Particulars: 30µM Testsubstanz (100 µM ATP); read-out: Hemmung von Kinasen in % MAPK2 (h).
From the text: as §1, §2

Chain of c-RAF (h) (P04049 whole entry): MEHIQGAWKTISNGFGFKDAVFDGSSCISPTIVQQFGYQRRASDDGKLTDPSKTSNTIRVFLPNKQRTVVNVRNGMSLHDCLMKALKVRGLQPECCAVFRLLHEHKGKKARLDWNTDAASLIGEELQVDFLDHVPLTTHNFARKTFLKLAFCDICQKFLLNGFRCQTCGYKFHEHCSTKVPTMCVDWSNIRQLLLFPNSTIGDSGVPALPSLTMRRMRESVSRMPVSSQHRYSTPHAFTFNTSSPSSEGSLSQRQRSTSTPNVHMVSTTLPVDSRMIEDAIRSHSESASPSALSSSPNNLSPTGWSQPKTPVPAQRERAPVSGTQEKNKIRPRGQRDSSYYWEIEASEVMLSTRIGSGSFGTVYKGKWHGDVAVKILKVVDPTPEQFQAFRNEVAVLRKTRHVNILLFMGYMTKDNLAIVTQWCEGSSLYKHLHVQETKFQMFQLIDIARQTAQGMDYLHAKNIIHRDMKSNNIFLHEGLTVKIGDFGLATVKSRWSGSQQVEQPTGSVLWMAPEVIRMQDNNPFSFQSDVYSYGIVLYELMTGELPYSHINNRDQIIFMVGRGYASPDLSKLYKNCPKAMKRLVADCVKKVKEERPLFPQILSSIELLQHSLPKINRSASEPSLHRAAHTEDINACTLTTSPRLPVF
Chain of PKB (h) (P31749 whole entry): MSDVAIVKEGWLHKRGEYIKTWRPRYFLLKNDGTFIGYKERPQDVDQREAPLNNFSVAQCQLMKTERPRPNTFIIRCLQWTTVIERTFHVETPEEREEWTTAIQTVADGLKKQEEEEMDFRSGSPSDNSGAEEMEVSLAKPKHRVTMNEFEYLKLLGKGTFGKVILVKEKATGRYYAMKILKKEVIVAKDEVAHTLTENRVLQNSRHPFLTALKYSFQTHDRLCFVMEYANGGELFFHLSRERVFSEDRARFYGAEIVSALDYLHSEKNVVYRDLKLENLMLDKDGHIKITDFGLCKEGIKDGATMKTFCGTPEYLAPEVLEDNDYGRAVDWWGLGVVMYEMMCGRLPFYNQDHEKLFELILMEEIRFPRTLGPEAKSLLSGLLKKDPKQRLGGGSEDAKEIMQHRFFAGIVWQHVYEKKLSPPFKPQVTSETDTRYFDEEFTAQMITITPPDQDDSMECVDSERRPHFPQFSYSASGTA
Chain of JNK3 (r) (P49187 whole entry): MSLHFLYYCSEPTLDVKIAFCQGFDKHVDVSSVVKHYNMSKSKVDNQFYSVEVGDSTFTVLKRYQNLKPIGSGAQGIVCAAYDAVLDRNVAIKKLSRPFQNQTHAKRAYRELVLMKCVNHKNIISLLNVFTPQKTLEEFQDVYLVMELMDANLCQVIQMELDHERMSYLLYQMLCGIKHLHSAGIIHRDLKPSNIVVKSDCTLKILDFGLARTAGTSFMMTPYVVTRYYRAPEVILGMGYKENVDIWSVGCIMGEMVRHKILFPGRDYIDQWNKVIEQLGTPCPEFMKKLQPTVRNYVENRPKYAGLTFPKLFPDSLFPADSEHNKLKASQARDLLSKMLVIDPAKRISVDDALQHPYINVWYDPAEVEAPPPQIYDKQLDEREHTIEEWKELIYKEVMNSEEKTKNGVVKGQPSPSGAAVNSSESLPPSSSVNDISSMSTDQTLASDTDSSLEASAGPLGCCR
Chain of Lck (h) (P06239 whole entry): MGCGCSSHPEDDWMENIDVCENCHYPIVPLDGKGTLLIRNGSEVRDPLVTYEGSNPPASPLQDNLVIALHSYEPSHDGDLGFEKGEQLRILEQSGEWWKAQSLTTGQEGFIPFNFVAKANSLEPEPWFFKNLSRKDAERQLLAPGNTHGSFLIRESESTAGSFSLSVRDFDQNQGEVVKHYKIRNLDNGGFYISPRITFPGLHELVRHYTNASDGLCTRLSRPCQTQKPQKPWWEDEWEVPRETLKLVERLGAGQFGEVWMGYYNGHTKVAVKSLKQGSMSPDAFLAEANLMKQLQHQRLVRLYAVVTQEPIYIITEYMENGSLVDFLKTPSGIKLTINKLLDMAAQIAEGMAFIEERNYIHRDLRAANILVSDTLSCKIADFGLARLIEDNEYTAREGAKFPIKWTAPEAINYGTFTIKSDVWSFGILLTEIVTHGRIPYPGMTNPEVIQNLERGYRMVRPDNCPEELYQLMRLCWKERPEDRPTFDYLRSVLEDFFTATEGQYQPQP
Chain of SAPK2a (h) (Q16539 whole entry): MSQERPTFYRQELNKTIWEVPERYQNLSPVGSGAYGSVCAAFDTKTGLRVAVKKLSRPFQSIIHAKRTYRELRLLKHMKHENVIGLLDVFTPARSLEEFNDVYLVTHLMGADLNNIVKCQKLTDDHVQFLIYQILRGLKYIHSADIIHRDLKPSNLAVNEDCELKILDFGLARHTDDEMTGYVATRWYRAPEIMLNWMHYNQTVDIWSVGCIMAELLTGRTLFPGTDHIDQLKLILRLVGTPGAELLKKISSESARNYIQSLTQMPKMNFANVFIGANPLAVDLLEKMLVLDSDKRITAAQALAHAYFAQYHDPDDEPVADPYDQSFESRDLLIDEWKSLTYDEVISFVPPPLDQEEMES
Chain of MAPK2 (h) (P28482 whole entry): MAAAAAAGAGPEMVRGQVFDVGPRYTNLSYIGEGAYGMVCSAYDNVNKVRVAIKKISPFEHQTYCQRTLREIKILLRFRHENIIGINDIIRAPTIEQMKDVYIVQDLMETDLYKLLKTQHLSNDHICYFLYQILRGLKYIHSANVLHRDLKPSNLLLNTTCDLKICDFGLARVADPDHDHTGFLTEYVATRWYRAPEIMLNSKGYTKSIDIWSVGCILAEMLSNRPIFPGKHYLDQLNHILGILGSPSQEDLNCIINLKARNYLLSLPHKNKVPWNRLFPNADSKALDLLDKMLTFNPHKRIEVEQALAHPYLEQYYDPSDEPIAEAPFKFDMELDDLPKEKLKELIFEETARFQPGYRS
Chain of GSK3β (h) (P49841 whole entry): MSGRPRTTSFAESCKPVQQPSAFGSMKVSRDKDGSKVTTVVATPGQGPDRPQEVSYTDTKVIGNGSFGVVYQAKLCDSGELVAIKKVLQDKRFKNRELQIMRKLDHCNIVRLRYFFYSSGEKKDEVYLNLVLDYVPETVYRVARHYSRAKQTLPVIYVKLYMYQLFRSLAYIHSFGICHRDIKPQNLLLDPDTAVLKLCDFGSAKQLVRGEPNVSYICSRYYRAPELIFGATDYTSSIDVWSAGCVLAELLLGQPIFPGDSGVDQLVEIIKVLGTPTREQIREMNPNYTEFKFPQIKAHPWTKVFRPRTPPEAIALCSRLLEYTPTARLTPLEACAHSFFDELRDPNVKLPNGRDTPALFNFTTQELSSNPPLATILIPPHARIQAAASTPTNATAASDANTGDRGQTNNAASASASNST
Chain of MAPK1 (h) (P27361 whole entry): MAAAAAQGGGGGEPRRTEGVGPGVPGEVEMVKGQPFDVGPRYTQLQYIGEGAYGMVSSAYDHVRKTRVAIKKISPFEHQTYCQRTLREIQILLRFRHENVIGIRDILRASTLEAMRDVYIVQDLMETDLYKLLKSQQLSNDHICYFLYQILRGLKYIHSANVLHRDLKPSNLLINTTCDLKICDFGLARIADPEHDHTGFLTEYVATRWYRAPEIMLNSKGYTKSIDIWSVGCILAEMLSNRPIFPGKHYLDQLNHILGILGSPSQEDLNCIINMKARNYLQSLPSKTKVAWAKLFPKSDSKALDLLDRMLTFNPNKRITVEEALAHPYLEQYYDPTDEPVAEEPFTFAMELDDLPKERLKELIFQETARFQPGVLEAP
Chain of MEK1 (h) (Q02750 whole entry): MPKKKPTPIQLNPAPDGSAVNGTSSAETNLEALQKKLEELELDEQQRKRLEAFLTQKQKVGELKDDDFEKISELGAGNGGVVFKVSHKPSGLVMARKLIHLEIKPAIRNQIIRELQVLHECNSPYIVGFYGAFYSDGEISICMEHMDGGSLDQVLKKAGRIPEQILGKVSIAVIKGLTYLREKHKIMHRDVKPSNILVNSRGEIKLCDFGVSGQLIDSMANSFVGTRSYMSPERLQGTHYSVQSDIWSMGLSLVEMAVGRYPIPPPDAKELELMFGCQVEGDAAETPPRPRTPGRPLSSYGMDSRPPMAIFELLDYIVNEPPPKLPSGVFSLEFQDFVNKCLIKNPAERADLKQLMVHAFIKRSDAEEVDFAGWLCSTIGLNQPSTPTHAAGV

In the case of `Cn1c(C#CCCO)nc2c(Sc3ccccc3)ncnc21` [Verbd. 79, 4-(9-Methyl-6-phenylsulfanyl-9H-purin-8-yl)-but-3-yn-1-ol], the inhibition at 30 µM was determined as 0% at c-RAF (h); 33% at PKB (h); 3% on SAPK2a (h); 0% on MEK1 (h); 0% at GSK3β (h); 11% on Lck (h). Besides, the inhibition at 30 µM at MAPK1 (h), at JNK3 (r) and on MAPK2 (h) was 0% throughout. In addition, the “Hemmung von Kinasen in % ROCKII (h)” value in the test on ROCKII (h) stood at 0%. For the same molecule, the “Hemmung von Kinasen in % PKA (h)” value in the test with PKA (h) stood at 0%.
With `c1ccc(CSc2ncnc3[nH]cnc23)cc1` [Verbd. 9, 6-Benzylsulfanyl-9H-purin], the inhibition at 30 µM came to 53% at c-RAF (h); 4% at PKB (h); 50% on SAPK2a (h); 7% on MEK1 (h); 35% at GSK3β (h); 22% on Lck (h). The inhibition at 30 µM worked out at 15% on MAPK1 (h), 7% at JNK3 (r) and 12% at MAPK2 (h). Also, in the test on ROCKII (h), the “Hemmung von Kinasen in % ROCKII (h)” value stood at 28%. Further, the “Hemmung von Kinasen in % PKA (h)” value in the test on PKA (h) is listed as 13%.
For `Fc1ccc(Sc2ncnc3[nH]ccc23)cc1` [Verbd. 53, 4-(4-Fluoro-phenylsulfanyl)-7H-pyrrolo[2,3-d]pyrimidin], the inhibition at 30 µM on c-RAF (h) worked out at 43%; on PKB (h) it was 0%; at SAPK2a (h), 79%; at MEK1 (h), 36%; on GSK3β (h), 4%; at Lck (h), 52%. Besides, the inhibition at 30 µM on MAPK1 (h) turned out to be 10%; at JNK3 (r), 5%; at MAPK2 (h), 2%. Further, in the test on ROCKII (h), the “Hemmung von Kinasen in % ROCKII (h)” value is listed as 42%. Moreover, the “Hemmung von Kinasen in % PKA (h)” value with PKA (h) turned out to be 0%.
For `Cn1c(-c2ccccc2)nc2c(Sc3ccccc3)ncnc21` [Verbd. 23, 9-Methyl-8-phenyl-6-phenylsulfanyl-9H-purin], the inhibition at 30 µM on c-RAF (h) was 12%; on PKB (h), 42%; on SAPK2a (h), 44%; at MEK1 (h) it was 4%; at GSK3β (h), 0%; on Lck (h), 5%. The inhibition at 30 µM on MAPK1 (h) amounted to 10%; at JNK3 (r), 12%; at MAPK2 (h), 0%. Also, the “Hemmung von Kinasen in % ROCKII (h)” value with ROCKII (h) was 1%. For the same molecule, the “Hemmung von Kinasen in % PKA (h)” value in the test on PKA (h) is 3%.
Turning to `c1ccc(Cn2cnc3c(Sc4ccccc4)ncnc32)cc1` [Verbd. 74, 9-Benzyl-6-phenylsulfanyl-9H-purin], the inhibition at 30 µM was 0% at c-RAF (h); 1% on PKB (h); 64% at SAPK2a (h); 6% on MEK1 (h); 1% at GSK3β (h); 0% on Lck (h). For the same molecule, the inhibition at 30 µM on MAPK1 (h), on JNK3 (r) and at MAPK2 (h) was 0% throughout. Further, in the test with ROCKII (h), the “Hemmung von Kinasen in % ROCKII (h)” value worked out at 1%. Besides, in the test on PKA (h), the “Hemmung von Kinasen in % PKA (h)” value is recorded as 0%.
With `Cn1c(-c2ccc([S+](C)[O-])cc2)nc2c(Sc3ccccc3)ncnc21` (stereo not drawn) [Verbd. 59, 8-(4-Methansulfinyl-phenyl)-9-methyl-6-phenylsulfanyl-9H-purin], the inhibition at 30 µM at c-RAF (h) worked out at 0%; on PKB (h) it was 4%; on SAPK2a (h), 27%; on MEK1 (h) it was 3%; at GSK3β (h) it was 4%; on Lck (h) it was 30%. Also, the inhibition at 30 µM on MAPK1 (h) was found to be 0%; on JNK3 (r) it was 6%; at MAPK2 (h), 0%. For the same molecule, the “Hemmung von Kinasen in % ROCKII (h)” value in the test on ROCKII (h) is 1%. Also, the “Hemmung von Kinasen in % PKA (h)” value in the test on PKA (h) worked out at 0%.
